In general, Ki refers to the dissociation constant of the complex between target and ligand, obtained from inhibition or displacement.

From ChEMBL document CHEMBL1250483, “Three-dimensional quantitative structure-activity relationship CoMSIA/CoMFA and LeapFrog studies on novel series of bicyclo [4.1.0] heptanes derivatives as melanin-concentrating hormone receptor R1 antagonists” (Eur J Med Chem, 2010) come the findings set out here.

In the experiment the target is Melanin-concentrating hormone receptor 1 (Homo sapiens, UniProt Q99705). The experiment is described as follows: Antagonist activity at MCH1 receptor. The format is functional.
Melanin-concentrating hormone receptor 1, sequence (Q99705 whole entry): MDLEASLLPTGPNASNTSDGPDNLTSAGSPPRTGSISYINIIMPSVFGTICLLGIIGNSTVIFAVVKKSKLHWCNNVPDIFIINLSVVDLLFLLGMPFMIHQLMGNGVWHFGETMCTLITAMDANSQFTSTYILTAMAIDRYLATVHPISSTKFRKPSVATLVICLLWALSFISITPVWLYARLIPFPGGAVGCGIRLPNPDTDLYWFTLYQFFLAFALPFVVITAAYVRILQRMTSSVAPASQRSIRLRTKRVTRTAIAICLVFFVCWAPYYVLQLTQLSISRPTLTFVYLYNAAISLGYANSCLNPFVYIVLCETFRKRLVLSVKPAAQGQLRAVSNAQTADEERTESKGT
Compound `COC1CCN(CCN(C(=O)Nc2ccc(F)c(Cl)c2)C2CC[C@]3(c4cccc(C#N)c4)CC3C2)CC1` (stereo partly drawn) showed a Ki of 15 nM.

Compound `N#Cc1cccc([C@]23CCC(N(CCN4CC[C@@H](O)C4)C(=O)Nc4ccc(OCOc5ccccc5)c(OCOc5ccccc5)c4)CC2C3)c1` (stereo partly drawn) had a Ki of 134 nM.

In the case of `CC(C)N(CCN(C(=O)Nc1ccc(F)c(Cl)c1)C1CC[C@]2(c3cccc(CN4CCN(C)CC4)c3)CC2C1)C(C)C` (stereo partly drawn), the affinity corresponds to a Ki of 54 nM.

In the case of `CS(=O)(=O)N1CCC(CCN(C(=O)Nc2ccc(F)c(C(F)(F)F)c2)C2CC[C@]3(c4cccc(C#N)c4)CC3C2)CC1` (stereo partly drawn), affinity was put at a Ki of 80 nM.

For `CS(=O)(=O)N1CCC(CN(C(=O)Nc2cc(Cl)nc(Cl)c2)C2CC[C@]3(c4cccc(CN5CC[C@H](O)C5)c4)CC3C2)CC1` (stereo partly drawn), the Ki was 8.89 nM.

Consider `COc1cccc(NC(=O)N(CCN2CC[C@@H](O)C2)C2CC[C@]3(c4cccc(C#N)c4)CC3C2)c1` (stereo partly drawn), for which the Ki is 373 nM.

In the case of `N#Cc1cccc([C@]23CCC(N(CCN4CC[C@@H](O)C4)C(=O)Nc4ccc(F)cc4)CC2C3)c1` (stereo partly drawn), the Ki was 54 nM.

In the case of `CC(C)N(CCN(C(=O)Nc1ccc(F)c(Cl)c1)C1CC[C@]2(c3cccc(CNS(C)(=O)=O)c3)CC2C1)C(C)C` (stereo partly drawn), the Ki was 18 nM.

With `CS(=O)(=O)N1CCC(CN(C(=O)Nc2ccc(F)c(C(F)(F)F)c2)C2CC[C@]3(c4cccc(C#N)c4)CC3C2)CC1` (stereo partly drawn), the Ki is 26 nM.

Consider `N#Cc1cccc([C@]23CCC(N(CCN4CC[C@@H](O)C4)C(=O)Nc4cc(F)cc(F)c4)CC2C3)c1` (stereo partly drawn), for which the Ki is 15 nM.

As to `N#Cc1cccc([C@]23CCC(N(CCN4CC[C@@H](O)C4)C(=O)Nc4ccc(F)c(F)c4)CC2C3)c1` (stereo partly drawn), the affinity, expressed as Ki, was 20 nM.

`CC(=O)NCc1cccc([C@]23CCC(N(CCN(C(C)C)C(C)C)C(=O)Nc4ccc(F)c(Cl)c4)CC2C3)c1` (stereo partly drawn) showed a Ki of 31 nM.

`CS(=O)(=O)N1CCC(CN(C(=O)Nc2cccc(F)c2)C2CC[C@]3(c4cccc(C#N)c4)CC3C2)CC1` (stereo partly drawn) showed a Ki of 9.71 nM.

Turning to `Cc1ccc(NC(=O)N(CCN2CC[C@@H](O)C2)C2CC[C@]3(c4cccc(C#N)c4)CC3C2)cc1F` (stereo partly drawn), the Ki was 48 nM.

Consider `N#Cc1cccc([C@]23CCC(N(CCN4CC[C@@H](O)C4)C(=O)Nc4cccc([N+](=O)[O-])c4)CC2C3)c1` (stereo partly drawn), for which the Ki is 60 nM.

For the compound `CC(C)N(CCN(C(=O)Nc1ccc(F)c(Cl)c1)C1CC[C@]2(c3cccc(CN4CC[C@H](O)C4)c3)CC2C1)C(C)C` (stereo partly drawn), the affinity, expressed as Ki, was 21 nM.

Compound `N#Cc1cccc([C@]23CCC(N(CCN4CC[C@@H](O)C4)C(=O)Nc4cccc(Br)c4)CC2C3)c1` (stereo partly drawn) had a Ki of 34 nM.

As to `N#Cc1cccc([C@]23CCC(N(CCN4CC[C@@H](O)C4)C(=O)Nc4cccc(Cl)c4)CC2C3)c1` (stereo partly drawn), the Ki is 27 nM.

As for `CCN(CC)Cc1cccc([C@]23CCC(N(CCN(C(C)C)C(C)C)C(=O)Nc4ccc(F)c(Cl)c4)CC2C3)c1` (stereo partly drawn), the Ki is 46 nM.

In turn, `CS(=O)(=O)N1CCCCC1CN(C(=O)Nc1ccc(F)c(Cl)c1)C1CC[C@]2(c3cccc(C#N)c3)CC2C1` (stereo partly drawn) gave a Ki of 295 nM.

Consider `N#Cc1cccc(NC(=O)N(CCN2CC[C@@H](O)C2)C2CC[C@]3(c4cccc(C#N)c4)CC3C2)c1` (stereo partly drawn), for which the affinity corresponds to a Ki of 92 nM.

Compound `CC(C)N(CCN(C(=O)Nc1ccc(F)c(Cl)c1)C1CC[C@]2(c3cccc(C#N)c3)CC2C1)C(C)C` (stereo partly drawn) had a Ki of 4.98 nM.

The compound `CC(C)N(CCN(C(=O)Nc1ccc(F)c(Cl)c1)C1CC[C@]2(c3cccc(CN(C)C)c3)CC2C1)C(C)C` (stereo partly drawn) showed a Ki of 13 nM.

In the case of `CC(C)N(CCO)CCN(C(=O)Nc1ccc(F)c(Cl)c1)C1CC[C@]2(c3cccc(C#N)c3)CC2C1` (stereo partly drawn), the affinity, expressed as Ki, was 8.71 nM.

`CN(C)Cc1cccc([C@]23CCC(N(CC4CCN(S(C)(=O)=O)CC4)C(=O)Nc4ccc(F)c(Cl)c4)CC2C3)c1` (stereo partly drawn) gave a Ki of 15 nM.

With `CC(C)N(CCN(C(=O)Nc1cccc([N+](=O)[O-])c1)C1CC[C@]2(c3cccc(C#N)c3)CC2C1)C(C)C` (stereo partly drawn), the Ki is 2.7 nM.

`CC(C)N(CCN(C(=O)Nc1cccc(Br)c1)C1CC[C@]2(c3cccc(C#N)c3)CC2C1)C(C)C` (stereo partly drawn): affinity was put at a Ki of 5.7 nM.

The compound `CC(C)N(CCN(C(=O)Nc1ccc(F)c(Cl)c1)C1CC[C@]2(c3cccc(C#N)c3)CC2C1)[C@H](C)CO` (stereo partly drawn) had a Ki of 9.4 nM.

For the compound `CC(C)N(CCN(C(=O)Nc1ccc(F)c(Cl)c1)C1CC[C@]2(c3cccc(C#N)c3)CC2C1)[C@@H](C)CO` (stereo partly drawn), the Ki was 5.2 nM.

In the case of `CN(C)Cc1cccc([C@]23CCC(N(CC4CCN(S(C)(=O)=O)CC4)C(=O)Nc4cc(Cl)nc(Cl)c4)CC2C3)c1` (stereo partly drawn), the affinity, expressed as Ki, was 3.3 nM.

Compound `CC(C)N(CCN(C(=O)Nc1cccc(F)c1)C1CC[C@]2(c3cccc(C#N)c3)CC2C1)C(C)C` (stereo partly drawn) showed a Ki of 2.1 nM.

`CC(C)N(CCN(C(=O)Nc1cccc(Cl)c1)C1CC[C@]2(c3cccc(C#N)c3)CC2C1)C(C)C` (stereo partly drawn) gave a Ki of 6 nM.

In turn, `CC(C)N(CCF)CCN(C(=O)Nc1ccc(F)c(Cl)c1)C1CC[C@]2(c3cccc(C#N)c3)CC2C1` (stereo partly drawn) had a Ki of 12 nM.

Consider `CC(C)N(CCN(C(=O)Nc1cc(Cl)nc(Cl)c1)C1CC[C@]2(c3cccc(C#N)c3)CC2C1)C(C)C` (stereo partly drawn), for which the Ki is 2.4 nM.

Consider `CC(C)N(CCN(C(=O)Nc1cccc(C#N)c1)C1CC[C@]2(c3cccc(C#N)c3)CC2C1)C(C)C` (stereo partly drawn), for which the affinity corresponds to a Ki of 7.6 nM.

In turn, `CC(C)N(CCN(C(=O)Nc1cc(F)cc(F)c1)C1CC[C@]2(c3cccc(C#N)c3)CC2C1)C(C)C` (stereo partly drawn) showed a Ki of 4.5 nM.

`CC(C)N(CCO)CCN(C(=O)Nc1cc(Cl)nc(Cl)c1)C1CC[C@]2(c3cccc(C#N)c3)CC2C1` (stereo partly drawn) gave a Ki of 1.6 nM.

Compound `CC(C)N(CCN(C(=O)Nc1cc(Cl)nc(Cl)c1)C1CC[C@]2(c3cccc(C#N)c3)CC2C1)[C@@H](C)CO` (stereo partly drawn) gave a Ki of 1.6 nM.

On to `CC1CCC(C2=CCC(N(CCN3CCCC3)C(=O)Nc3ccc(F)c(Cl)c3)CC2)S1` (stereo not drawn), for which the Ki is 84.9 nM.

In turn, `CC(=O)C1CCC(C2=CCC(N(CCN3CCCC3)C(=O)Nc3ccc(F)c(Cl)c3)CC2)S1` (stereo not drawn) gave a Ki of 31 nM.

For `CC(C)N(CCN(C(=O)Nc1ccc(F)cc1)C1CC[C@]2(c3cccc(C#N)c3)CC2C1)C(C)C` (stereo partly drawn), the Ki was 10.4 nM.

Compound `CC(C)NCCN(C(=O)Nc1cc(Cl)nc(Cl)c1)C1CC[C@]2(c3cccc(C#N)c3)CC2C1` (stereo partly drawn) had a Ki of 1.9 nM.

On to `N#Cc1cccc([C@]23CCC(N(CCNCCF)C(=O)Nc4cc(Cl)nc(Cl)c4)CC2C3)c1` (stereo partly drawn), for which the affinity corresponds to a Ki of 4.4 nM.

Turning to `CC(=O)C1CCCN1CCN(C(=O)Nc1ccc(F)c(Cl)c1)C1CC[C@]2(c3cccc(C#N)c3)CC2C1` (stereo partly drawn), the affinity, expressed as Ki, was 23 nM.

On to `CC1CC[C@@H](CO)N1CCN(C(=O)Nc1ccc(F)c(Cl)c1)C1CC[C@]2(c3cccc(C#N)c3)CC2C1` (stereo partly drawn), for which the Ki was 11 nM.

As for `CC1CC[C@@H](CO)N1CCN(C(=O)Nc1cc(Cl)nc(Cl)c1)C1CC[C@]2(c3cccc(C#N)c3)CC2C1` (stereo partly drawn), the Ki was 1.2 nM.

With `C[N+]1(CCN(C(=O)Nc2ccc(F)c(Cl)c2)C2CC[C@]3(c4cccc(C#N)c4)CC3C2)CCCC1` (stereo partly drawn), the Ki was 16 nM.

The compound `C[N+]1(CCN(C(=O)Nc2ccc(F)c(Cl)c2)C2CC[C@]3(c4cccc(C#N)c4)CC3C2)CCCCC1` (stereo partly drawn) had a Ki of 15 nM.

In turn, `N#Cc1cccc([C@]23CCC(N(CCN4CCCC(O)C4)C(=O)Nc4ccc(F)c(Cl)c4)CC2C3)c1` (stereo partly drawn) had a Ki of 22 nM.

`N#Cc1cccc([C@]23CCC(N(CCN4CCCCCC4)C(=O)Nc4ccc(F)c(Cl)c4)CC2C3)c1` (stereo partly drawn): the affinity, expressed as Ki, was 15 nM.

On to `CNC(=O)N1CCC(CN(C(=O)Nc2ccc(F)c(C(F)(F)F)c2)C2CC[C@]3(c4cccc(C#N)c4)CC3C2)CC1` (stereo partly drawn), for which the inhibition constant (Ki) was 181 nM.

Consider `N#Cc1cccc([C@]23CCC(N(CCN4CCOCC4)C(=O)Nc4ccc(F)c(Cl)c4)CC2C3)c1` (stereo partly drawn), for which the affinity corresponds to a Ki of 11 nM.

The compound `CC(C)N(CCN(C(=O)Nc1ccc(F)c(F)c1)C1CC[C@]2(c3cccc(Br)c3)CC2C1)C(C)C` (stereo partly drawn) showed a Ki of 7.76 nM.

In turn, `CC(=O)N1CCC(CN(C(=O)Nc2ccc(F)c(Cl)c2)C2CC[C@]3(c4cccc(C#N)c4)CC3C2)CC1` (stereo partly drawn) showed a Ki of 312 nM.

`CC(C)N(CCN(C(=O)Nc1ccc(F)c(Cl)c1)C1CC[C@]2(c3cccc(CO)c3)CC2C1)C(C)C` (stereo partly drawn): the affinity, expressed as Ki, was 48 nM.

With `CS(=O)(=O)N1CCC(CN(C(=O)Nc2ccc(F)c(Cl)c2)C2CC[C@]3(c4cccc(C#N)c4)CC3C2)CC1` (stereo partly drawn), the affinity, expressed as Ki, was 7.19 nM.

For `CO/N=C/c1cccc([C@]23CCC(N(CCN(C(C)C)C(C)C)C(=O)Nc4ccc(F)c(Cl)c4)CC2C3)c1` (stereo partly drawn), affinity was put at a Ki of 4.1 nM.

For the compound `CS(=O)(=O)N1CCC(CN(C(=O)Nc2ccc(F)c(F)c2)C2CC[C@]3(c4cccc(C#N)c4)CC3C2)CC1` (stereo partly drawn), the Ki was 5.4 nM.

The compound `N#Cc1cccc([C@]23CCC(N(CCN4CC[C@@H](O)C4)C(=O)Nc4ccccc4)CC2C3)c1` (stereo partly drawn) had a Ki of 132 nM.

`N#Cc1cccc([C@]23CCC(N(CCN4CC[C@@H](O)C4)C(=O)Nc4cccc(F)c4)CC2C3)c1` (stereo partly drawn) had an inhibition constant Ki of 20 nM.

In the case of `CCO/N=C/c1cccc([C@]23CCC(N(CCN(C(C)C)C(C)C)C(=O)Nc4ccc(F)c(Cl)c4)CC2C3)c1` (stereo partly drawn), the Ki is 29 nM.

On to `CCS(=O)(=O)N1CCC(CN(C(=O)Nc2ccc(F)c(F)c2)C2CC[C@]3(c4cccc(C#N)c4)CC3C2)CC1` (stereo partly drawn), for which affinity was put at a Ki of 21 nM.

On to `CS(=O)(=O)N1CCCC(CN(C(=O)Nc2ccc(F)c(Cl)c2)C2CC[C@]3(c4cccc(C#N)c4)CC3C2)C1` (stereo partly drawn), for which the Ki is 211 nM.
